Experimental data from US9950026B2, “Methods for reducing oxidative damage” (Cornell Research Foundation, Inc., priority 2004, dated 2018).
Where a SMILES comes first, the peptide text is derived from it. [ ]: non-standard residue; d: D form. Dmt = Cc1cc(O)cc(C)c1C[C@H](N)C(=O)O

Experiments:
[1] = test system: isolated mouse liver mitochondria; experiment: H2O2 production by isolated mitochondria, luminol chemiluminescence; format: biochemical
DBA/2 islet cells = experiment: Islet cell uptake of [3H]SS-31; format: in vitro ADME, mouse
Procedure: FIG. 33A-33B. SS peptides penetrate islet cells, co-localize with mitochondria and preserve islet mitochondrial membrane potential. (A) Islet cell uptake of SS-31. DBA/2 islet cells were incubated with 1 nM of tritium labeled SS-31 and 1 μM unlabeled SS-31 at 37° C. for 1 h. Following incubation, radioactivity was measured in the medium and in cell lysates and the radioactive counts in the medium were subtracted from radioactive counts in the cell lysate and normalized to protein content. In four consecutive experiments, the mean±(SE) [^3H]SS-31 uptake was 70.2+/31 10.3 pmol/mg, of proteins (B)(i-iv) SS-31 preserves islet mitochondrial potential. DBA/2 mice were treated with SS-31 (3 mg/kg s.c. BID) or vehicle control 24 hours prior to pancreas harvest for islet isolation. SS-31 treated groups had 1 nM SS-31 added to the islet isolation reagents. Following isolation, TMRM uptake was evaluated using confocal laser scanning microscopy.
Islets are tightly adherent cell clusters and entry of peptides/proteins may be impaired given their architecture.

SH-SY5Y cells [2] = experiment: Cell viability, MTS assay, cells treated with tBHP; format: cell-based, human; conditions: t-BHP 0.05-0.1 mM, 24 h
Procedure: Neuronal N2A and SH-SY5Y cells were plated in 96-well plate at a density of 1×10^4/well and allowed to grow for 2 days before treatment with t-butyl hydroperoxide (tBHP) (0.05-0.1 mM) with or without SS-31 (10^−12 M to 10^−9 M for 24 h. Cell death was assessed by a cell proliferation assay (MTS assay, Promega, Madison, Wis.).

Diabetic DBA/2 mice = experiment: Marginal islet cell mass transplantation model; format: in vivo
Procedure: FIG. 35A-35C. Reversal of diabetes following transplantation of a marginal mass of syngeneic islets. Diabetic DBA/2 mice received 200 syngeneic islet cells under the right kidney capsule. Reversal of diabetes was defined as random nonfasting blood glucose levels below 200 mg/dl on 3-consecutive days. (A) Blood glucose levels of each individual control mouse following transplantation of 200 syngeneic islets. (B) Blood glucose levels of each individual SS-31 treated mouse following transplantation of 200 syngeneic islets. (C) Reversal of diabetes following transplantation of a marginal islet cell mass in SS-31 treatment vs. control. Number of normoglycemic mice by day 1, 3, 5, 10 and 14 post transplantation and two-tailed P-valued calculated using chi-squared bivariate analysis are shown.
In a marginal islet cell mass transplantation model, 0 of 8 recipients of islets isolated from pancreas harvested from the control mice had successful reversal of hyperglycemia (defined as three consecutive blood glucose levels<200 mg/dl), whereas sustained normoglycemia occurred in 5 of ten recipients of islets isolated from pancreas from the SS-31 treated donor mice (FIG. 35).

[3] = test system: Mouse pancreatic islet cells; experiment: tBHP oxidative damage in islet cells (TMRM, DCF); format: cell-based; conditions: 25 μM tBHP, 1 nM SS-31
Procedure: Mouse pancreatic islet cells were untreated (a), or treated with 25 μM tBHP without or with 1 nM SS-31 (c). Mitochondrial potential was measured by TMRM (red) and reactive oxygen species were measured by DCF (green) using confocal microscopy.

N2A cells [4] = experiment: Mitochondrial function, MTT assay, after tBHP; format: cell-based, murine
Procedure: FIG. 23A-23B. SS-31 protected against tBHP-induced […]. (A) SS-31 protected mitochondrial viability in N2A cells treated with tBHP for 24 h. Mitochondrial viability was evaluated using the MTT assay (*P<0.01 compared to untreated cells, *P<0.05, P<0.01 compared to tBHP alone). (B) SS-31 protected mitochondrial viability in SH-SY5Y cells treated with tBHP for […] (*P<0.01 compared to untreated cells; **P<0.01 compared to tBHP alone).
(§1) Only viable mitochondria containing NADPH dehydrogenase activity are capable of cleaving MTT to the formazan. A 50 μM tBHP induced 50% loss of mitochondrial function in N2A cells (FIG. 23A, […]) and 30% loss of mitochondrial function in SH-SY5Y cells (FIG. 23B, P<0.01). […] Treatment of N2A cells with SS-31 alone had no effect on mitochondrial function.

SH-SY5Y cells [5] = experiment: Mitochondrial function, MTT assay, after tBHP; format: cell-based, human; conditions: tBHP 50-100 μM, 24 h
Procedure: FIG. 23A-23B. SS-31 protected against tBHP-induced mitochondrial viability. (A) SS-31 protected mitochondrial viability in N2A cells treated with tBHP for 24 h. Mitochondrial viability was evaluated using the MTT assay (*P<0.01 compared to untreated cells, *P<0.05, P<0.01 compared to tBHP alone). […]
as §1

N2A cells [6] = experiment: Nuclear condensation (Hoechst) after tBHP; format: cell-based, murine; conditions: 50 μM tBHP, 12 h
Procedure: FIG. 20A-20C. […] (A)(a-c; a′-c′) N2A cells were treated with 50 μM tBHP alone or with SS-31 for 12 h. Cells were stained with Hoechst 33342 for 20 min., fixed, and imaged by fluorescent microscopy. (a) Untreated cells show uniformly stained nuclei (a′). […] (c) Cells treated with tBHP and 1 nM SS-31 had less nuclear changes (c′). […] Apoptotic cells were counted using MetaMorph software. *P<0.01 compared to untreated cells; *P<0.01 compared to tBHP alone. […] SH-SY5Y cells were treated with 25 μM tBHP for 24 h. *P<0.01 compared to untreated cells; *P<0.01 compared to tBHP alone.
The morphological appearance of cells treated with tBHP was also consistent with apoptosis. N2A cells incubated with 50 μM tBHP for 12 h became rounded and shrunken (FIG. 20A, panel b). […] These nuclear changes were abolished by concurrent treatment with 1 nM SS-31 (FIG. 20A, panel c′).

[7] = test system: G93A-SOD transfected murine neuroblastoma (N2A) cells; experiment: H2O2-induced cell death (LDH release); format: cell-based; conditions: SS-31 between 1 and 100 μM added 1 h after exposure to H2O2
Procedure: FIG. 24. Increased hydrogen peroxide (H2O2) sensitivity of G93A-SOD transfected murine neuroblastoma (N2A) cells as compared to wildtype SOD-transfected N2A cells after addition of 0.5 or 1 mM H2O2 for 1 h. Cell death was quantified by measurement of the percentage of H2O2-induced LDH release of total cellular LDH-content. […] Values are means+S.D., n=4-5, *p<0.1, **p<0.05, Student's t-test.

Molecule	antimycin-induced increase in H2O2 production ([1]; antimycin 1 μM, peptide 1.0 μM)	amount of H2O2 production ([1]; basal, 10 μM)	penetration of intact mouse islets (DBA/2 islet cells)	concentration achieving complete protection against t-BHP (SH-SY5Y cells [2]) [nM]	t-BHP-induced cytotoxicity (SH-SY5Y cells [2]; concurrent treatment)	recipients with sustained normoglycemia (Diabetic DBA/2 mice; islets from SS-31 treated donor mice)	effect of discontinuation of SS-31 treatment on day 10 (Diabetic DBA/2 mice; mouse, in vivo)	time of reversal of hyperglycemia post-transplant (Diabetic DBA/2 mice; mouse, in vivo) [days]	oxidative damage caused by tBHP [3]	tBHP-induced mitochondrial toxicity/dysfunction (MTT) (N2A cells [4]; tBHP 50-100 μM, 24 h)	mitochondrial function, peptide alone (N2A cells [4]; without tBHP)	tBHP-induced mitochondrial toxicity (MTT) (SH-SY5Y cells [5])	number of apoptotic cells (N2A cells [6])	nuclear changes (fragmentation and condensation) (N2A cells [6]; 1 nM SS-31)	H2O2-induced cell death [7]
2′,6′-Dmt-Arg-Phe-Lys-NH2 [SS-02]	completely blocked	significantly reduced	–	–	–	–	–	–	–	–	–	–	–	–	–
Cc1cc(O)cc(C)c1C[C@H](NC(=O)[C@H](N)CCCNC(=N)N)C(=O)N[C@@H](CCCCN)C(=O)N[C@@H](Cc1ccccc1)C(N)=O [SS-31, D-Arg-2′6′-Dmt-Lys-Phe-NH2] (H-[dR][Dmt]KF-NH2; N-terminus assumed)	–	–	readily penetrates	1	dose-dependent reduction	5 of ten	did not result in return of hyperglycemia	≤ 1	reduces oxidative damage	dose-dependently reduced	no effect	dose-dependently reduced	dose-dependently reduced	abolished	significantly reduced
